Columns and labels:
Format in all cases: cell-based
human A1 receptor = molecular target: T1, human A1 receptor (Homo sapiens, UniProt P30542); assay: functional cAMP (HTRF) assay, recombinant CHO cells expressing human A1 receptor, forskolin, agonist CPA
T1 construct: expressed in transfected cells; host or cells: CHO
T1 sequence (P30542 1-326): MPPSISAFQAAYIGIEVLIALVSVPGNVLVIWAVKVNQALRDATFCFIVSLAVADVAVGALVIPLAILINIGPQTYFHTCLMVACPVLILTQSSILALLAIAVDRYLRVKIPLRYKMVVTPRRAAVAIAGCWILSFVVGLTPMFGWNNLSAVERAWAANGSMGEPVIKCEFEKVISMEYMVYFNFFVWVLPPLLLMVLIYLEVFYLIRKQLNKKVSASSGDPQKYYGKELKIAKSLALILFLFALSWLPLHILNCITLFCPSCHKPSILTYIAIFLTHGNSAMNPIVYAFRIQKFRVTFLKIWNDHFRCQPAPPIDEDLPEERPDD
In short: (§1)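 Recombinant CHO lines carrying either receptor receive forskolin, compound and the matching agonist, CPA or IB-MECA. After 30 min, HTRF reagents are added and cAMP is quantified. Values are normalized to inhibitor and neutral DMSO controls, then fitted.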

human A3 receptor = molecular target: T2, human A3 receptor (Homo sapiens, UniProt P0DMS8); assay: functional cAMP (HTRF) assay, recombinant CHO cells expressing human A3 receptor, forskolin, agonist IB-MECA
T2 construct: expressed in transfected cells; host or cells: CHO
T2 sequence (P0DMS8 1-318): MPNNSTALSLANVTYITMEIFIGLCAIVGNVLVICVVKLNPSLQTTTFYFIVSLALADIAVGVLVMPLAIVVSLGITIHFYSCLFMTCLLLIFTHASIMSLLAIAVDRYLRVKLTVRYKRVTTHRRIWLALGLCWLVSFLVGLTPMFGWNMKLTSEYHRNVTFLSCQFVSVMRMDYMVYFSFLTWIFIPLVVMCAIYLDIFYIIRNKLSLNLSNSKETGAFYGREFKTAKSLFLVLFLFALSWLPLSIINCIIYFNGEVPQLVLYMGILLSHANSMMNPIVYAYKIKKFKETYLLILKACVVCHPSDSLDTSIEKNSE
In short: as §1

human A2A receptor = molecular target: T3, human A2A receptor (Homo sapiens, UniProt P29274); assay: functional cAMP (HTRF) assay, recombinant HEK293 cells expressing human A2A receptor, agonist NECA
T3 construct: expressed in transfected cells; host or cells: HEK293

A2B receptors = molecular target: T4, A2B receptors (Homo sapiens, UniProt P29275); assay: functional cAMP (HTRF) assay, recombinant HEK293 cells expressing human A2B receptor, agonist NECA; design: expressed in transfected cells; host or cells: HEK293
T4 sequence (P29275 1-332): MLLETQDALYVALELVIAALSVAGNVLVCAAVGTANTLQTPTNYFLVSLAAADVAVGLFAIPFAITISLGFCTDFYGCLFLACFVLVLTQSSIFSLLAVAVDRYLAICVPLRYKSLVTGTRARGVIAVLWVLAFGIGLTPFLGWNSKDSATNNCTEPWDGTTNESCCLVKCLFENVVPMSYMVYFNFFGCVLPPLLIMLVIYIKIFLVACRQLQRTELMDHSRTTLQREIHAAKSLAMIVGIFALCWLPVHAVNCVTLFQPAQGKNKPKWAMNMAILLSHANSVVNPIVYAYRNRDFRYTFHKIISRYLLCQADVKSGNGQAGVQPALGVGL

T3 sequence (P29274 whole entry): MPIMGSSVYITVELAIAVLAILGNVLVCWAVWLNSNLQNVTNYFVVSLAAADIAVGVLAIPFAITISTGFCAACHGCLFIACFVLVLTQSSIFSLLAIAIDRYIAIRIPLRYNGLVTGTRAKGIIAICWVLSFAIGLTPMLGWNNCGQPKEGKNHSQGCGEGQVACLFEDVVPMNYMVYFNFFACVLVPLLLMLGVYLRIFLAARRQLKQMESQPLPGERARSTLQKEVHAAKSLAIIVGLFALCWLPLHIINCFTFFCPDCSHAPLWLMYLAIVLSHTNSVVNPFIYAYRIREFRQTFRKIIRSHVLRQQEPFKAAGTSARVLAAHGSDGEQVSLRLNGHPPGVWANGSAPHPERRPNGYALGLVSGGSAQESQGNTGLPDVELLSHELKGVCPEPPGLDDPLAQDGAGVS

Row | IC50 (human A1 receptor) | IC50 (human A3 receptor) | IC50 (human A2A receptor) | IC50 (A2B receptors) | Compound
1 | < 1000 nM | > 1000 nM | < 10 nM | < 1000 nM | COc1ccc(-c2ccc(F)cc2)c2nc(NC(=O)N3CCC(C)(O)CC3)[nH]c12 [compound 144, N-[4-(4-fluorophenyl)-7-methoxy-1H-1,3-benzodiazol-2-yl]-4-hydroxy-4-methylpiperidine-1-carboxamide]
2 | > 1000 nM | > 1000 nM | < 10 nM | > 1000 nM | COc1ccc(-c2cnn(C3CCN(C(=O)OC(C)(C)C)CC3)c2)c2[nH]c(NC(=O)N3CCC(C)(O)CC3)nc12 [compound 145, tert-butyl 4-(4-{2-[(4-hydroxy-4-methylpiperidine-1-carbonyl)amino]-4-methoxy-1H-1,3-benzodiazol-7-yl}-1H-pyrazol-1-yl)piperidine-1-carboxylate]
3 | > 1000 nM | > 1000 nM | < 10 nM | > 1000 nM | COc1ccc(C2CCOCC2)c2nc(NC(=O)N3CC[C@@]4(CCOC4)C3)[nH]c12 [compound 150, (5R)-N-[7-methoxy-4-(oxan-4-yl)-1H-1,3-benzodiazol-2-yl]-2-oxa-7-azaspiro[4.4]nonane-7-carboxamide]
4 | < 1000 nM | > 1000 nM | < 10 nM | > 1000 nM | COc1ccc(-c2cnn(CCC(C)C)c2)c2nc(NC(=O)N3CCC(C)(O)CC3)[nH]c12 [compound 151, 4-hydroxy-N-{7-methoxy-4-[1-(3-methylbutyl)-1H-pyrazol-4-yl]-1H-1,3-benzodiazol-2-yl}-4-methylpiperidine-1-carboxamide]
5 | > 1000 nM | < 1000 nM | < 100 nM | < 1000 nM | COc1ccc(-c2cnn(C)c2)c2nc(NC(=O)c3ccc(CN4CCOCC4)cc3)[nH]c12 [compound 152, N-[7-methoxy-4-(1-methyl-1H-pyrazol-4-yl)-1H-1,3-benzodiazol-2-yl]-4-[(morpholin-4-yl)methyl]benzamide]
6 | > 1000 nM | > 1000 nM | < 10 nM | > 1000 nM | COc1ccc(C2CCOCC2)c2nc(NC(=O)c3ccnc(N4CC[C@@]5(CCOC5)C4)c3)[nH]c12 [compound 153, N-[7-methoxy-4-(oxan-4-yl)-1H-1,3-benzodiazol-2-yl]-2-[(5R)-2-oxa-7-azaspiro[4.4]nonan-7-yl]pyridine-4-carboxamide]
7 | > 1000 nM | < 1000 nM | < 10 nM | > 1000 nM | COc1ccc(C2CCOCC2)c2nc(NC(=O)c3ccnc(N4CC[C@]5(CCOC5)C4)c3)[nH]c12 [compound 154, N-[7-methoxy-4-(oxan-4-yl)-1H-1,3-benzodiazol-2-yl]-2-[(5S)-2-oxa-7-azaspiro[4.4]nonan-7-yl]pyridine-4-carboxamide]
8 | > 1000 nM | < 100 nM | < 10 nM | < 100 nM | COc1ccc(-c2cnn(C)c2)c2[nH]c(NC(=O)c3cnn(C)c3)nc12 [compound 160, N-[7-methoxy-4-(1-methyl-1H-pyrazol-4-yl)-1H-1,3-benzodiazol-2-yl]-1-methyl-1H-pyrazole-4-carboxamide]
9 | > 1000 nM | < 1000 nM | < 10 nM | < 1000 nM | COCCn1cc(C(=O)Nc2nc3c(-c4cnn(C)c4)ccc(OC)c3[nH]2)cn1 [compound 161, N-[7-methoxy-4-(1-methyl-1H-pyrazol-4-yl)-1H-1,3-benzodiazol-2-yl]-1-(2-methoxyethyl)-1H-pyrazole-4-carboxamide]
10 | > 1000 nM | > 1000 nM | < 100 nM | < 1000 nM | COc1ccc(-c2cnn(C)c2)c2nc(NC(=O)c3ccc(C(=O)N(C)C)nc3)[nH]c12 [compound 162, N5-[7-methoxy-4-(1-methyl-1H-pyrazol-4-yl)-1H-1,3-benzodiazo1-2-yl]-N2,N2-dimethylpyridine-2,5-dicarboxamide]

From patent publication US11453647B2, “Benzimidazole derivatives as adenosine receptor antagonists” (Merck Patent GmbH, priority 2017, dated 2022)
